Results published in ChEMBL document CHEMBL3046077, “Synthesis and theoretic calculations of benzoxazoles and docking studies of their interactions with triosephosphate isomerase” (Med Chem Res, 2013).
Values after ≈ are worked out from the molar mass of the structure shown. Active and inactive are the calls of the source. No cut-off for these calls is given here.

What was measured:
Assay type in all cases: functional, organism-based
Trypanosoma cruzi [1] = test: Antitrypanosomal activity against trypomastigote form of Trypanosoma cruzi INC5 after 24 hr by Neubauer counting method; conditions: INC5, 24 h
Trypanosoma cruzi [2] = test: Antitrypanosomal activity against trypomastigote form of Trypanosoma cruzi NINOA after 24 hr by Neubauer counting method
Trypanosoma cruzi [3] = test: Antitrypanosomal activity against trypomastigote form of Trypanosoma cruzi INC5 at 5 to 250 ug/ml after 24 hr by Neubauer counting method
Trypanosoma cruzi [4] = test: Antitrypanosomal activity against trypomastigote form of Trypanosoma cruzi NINOA at 5 to 250 ug/ml after 24 hr by Neubauer counting method

Row | Compound | IC50 (Trypanosoma cruzi [1]) [µg/mL] | IC50 (Trypanosoma cruzi [2]) [µg/mL] | Activity (Trypanosoma cruzi [3]) | Activity (Trypanosoma cruzi [4])
1 | Cc1ccc2nc(/C=C/C(=O)O)oc2c1 | 421 (≈ 2070 µM) | 266 (≈ 1310 µM) |  | 
2 | O=C(O)/C=C/c1nc2ccccc2o1 |  |  | Active | Active
3 | O=C(Cn1ccnc1[N+](=O)[O-])NCc1ccccc1 [BENZNIDAZOLE] | 205 (≈ 786 µM) | 117 (≈ 448 µM) |  | 
